Test results reported in ChEMBL document CHEMBL4732026, “Benzimidazole-1,2,3-triazole hybrid molecules: synthesis and study of their interaction with G-quadruplex DNA” (RSC Med Chem, 2021).

Legend:
B16-F10 = assay: Cytotoxicity against mouse B16-F10 cells assessed as reduction in cell viability measured after 72 hrs by MTT assay; format: functional, cell-based; settings: B16-F10, 72 h
CHO-K1 [1] = assay: Cytotoxicity against […] cells assessed as reduction in cell viability measured after 72 hrs by MTT assay; format: cell-based; settings: Cricetulus griseus, CHO-K1, 72 h
PC-3 [2] = assay: Induction of apoptosis in human PC-3 cells assessed as necrotic cells at 50 uM after 48 hrs by Annexin V based flow cytometric analysis (reference value: 0.79%); format: functional
PC-3 [3] = assay: Induction of apoptosis in human PC-3 cells assessed as late apoptic cells at 50 uM after 48 hrs by Annexin V based flow cytometric analysis (reference value: 9.24%); format: functional
PC-3 [4] = assay: Induction of apoptosis in human PC-3 cells assessed as viable cells at 55 uM after 48 hrs by Annexin V based flow cytometric analysis (reference value: 89.57%); format: functional; settings: read-out: Activity
PC-3 [5] = assay: Induction of apoptosis in human PC-3 cells assessed as apoptotic cells at 55 uM incubated for 48 hrs by AnnexinV based flow cytometric analysis (reference value: 10.43%); format: functional
[6] = Induction of apoptosis in CHO-K1 cells assessed as viable cells at 60 uM after 48 hrs by Annexin V based flow cytometric analysis (reference value: 93.71%); format: cell-based, Cricetulus griseus; settings: chinese hamster, read-out: Activity
CHO-K1 [7] = assay: Induction of apoptosis in CHO-K1 cells assessed as necrotic cells at 60 uM after 48 hrs by Annexin V based flow cytometric analysis (reference value: 0.70%); format: cell-based, Cricetulus griseus; settings: chinese hamster, cho-k1, 48 h
CHO-K1 [8] = assay: Induction of apoptosis in CHO-K1 cells assessed as early apoptic cells at 60 uM after 48 hrs by Annexin V based flow cytometric analysis (reference value: 4.58%); format: cell-based, Cricetulus griseus; settings: chinese hamster, cho-k1, 48 h
Quadruplex DNA [9] = assay: Binding affinity to c-Myc G-quadruplex DNA (unknown origin) assessed as hypsochromic shift at 8.5 uM incubated for 5 mins by UV- vis spectrophotometric analysis; format: nucleic-acid assay
dsDNA = assay: Binding affinity to double strand DNA (unknown origin) assessed as hypsochromic shift at 8.5 uM incubated for 5 mins by UV- vis spectrophotometric analysis; format: nucleic-acid assay
Quadruplex DNA [10] = assay: Binding affinity to Tel Q G-quadruplex DNA (unknown origin) assessed as hyperchromicity at 8.5 uM incubated for 5 mins by UV- vis spectrophotometric analysis; format: nucleic-acid assay
Quadruplex DNA [11] = assay: Stabilization of Tel Q G-quadruplex DNA (unknown origin) assessed as change in melting temperature at 8.5 uM incubated for 5 mins by UV-visible thermal denaturation study; format: nucleic-acid assay
Quadruplex DNA [12] = assay: Stabilization of c-Myc G-quadruplex DNA (unknown origin) assessed as change in melting temperature at 8.5 uM incubated for 5 mins by UV-visible thermal denaturation study; format: nucleic-acid assay

- Activity (Quadruplex DNA [9]): 5 nm
- Activity (dsDNA): 5.6 nm
- Activity (Quadruplex DNA [10]): 37.1%
- ΔTm (Quadruplex DNA [11]): 14 °C
- ΔTm (Quadruplex DNA [12]): 5 °C
Structure (SMILES): O=C(Cn1cc(CSc2nc3cc(OC(F)F)ccc3[nH]2)nn1)NC1CCCCC1
- IC50 (B16-F10): 84.7 µM
- IC50 (CHO-K1 [1]): 62.9 µM
- Activity (PC-3 [2]): 2.57%
- Activity (PC-3 [3]): 9.39%
- viability at 55 µM (PC-3 [4]): 81.4%
- Activity (PC-3 [5]): 18.62%
- viability at 48 h, 60 µM [6]: 86%
- Activity (CHO-K1 [7]): 1.97%
- Activity (CHO-K1 [8]): 10.39%
